pIC50: −log10 of the molar value. Calls of active or inactive are those of the source. No cut-off for these calls is given here.
Columns and labels:
[1] = target: T1, 3',5'-cyclic-AMP phosphodiesterase 4D (Homo sapiens, UniProt Q08499); assay: Inhibition of PDE4D7 (unknown origin) using FAM-cyclic-3'5'-AMP as substrate at 100 nM incubated for 1 hrs by fluorescence polarization assay relative to control
[2] = target: T1, 3',5'-cyclic-AMP phosphodiesterase 4D; assay: Inhibition of PDE4D7 (unknown origin) using FAM-cyclic-3'5'-AMP as substrate incubated for 1 hrs by fluorescence polarization assay
[3] = target: T1, 3',5'-cyclic-AMP phosphodiesterase 4D; assay: Inhibition of PDE4D7 (unknown origin) using FAM-cyclic-3'5'-AMP as substrate at 10 nM incubated for 1 hrs by fluorescence polarization assay relative to control
[4] = target: T1, 3',5'-cyclic-AMP phosphodiesterase 4D; assay: Potency index, ratio of TPA16 IC50 to test compound IC50 for inhibition of PDE4D7 (unknown origin) using FAM-cyclic-3'5'-AMP as substrate incubated for 1 hrs by fluorescence polarization assay
Phosphodiesterase 4 = Phosphodiesterase 4 (Homo sapiens, UniProt P27815+Q08499+Q07343+Q08493); assay: Inhibition of PDE4 (unknown origin); assay type: protein assay
Phosphodiesterase 7 = Phosphodiesterase 7 (Homo sapiens, UniProt Q13946+Q9NP56); assay: Inhibition of PDE7 (unknown origin); assay type: protein assay
HT-22 = assay: Cytotoxicity against mouse HT-22 cells at 10 to 30 uM; assay type: toxicity, cell-based; details: ht-22, 30 µM, dose 10-30 µM
[5] = target: T1, 3',5'-cyclic-AMP phosphodiesterase 4D; assay: Inhibition of human recombinant PDE4D using radioactively labelled cAMP and cAMP as substrate incubated for 1 hrs by luminescence based analysis
[6] = Toxicity in ketamine/xylazine-induced anesthetic male C57BL/6J mouse model assessed as emetogenic potential by measuring reduction in anesthesia duration at 0.5 mg/kg, po preadministered with compound for 15 mins followed by ketamine/xylazine administration; assay type: organism-based; details: in vivo, 0.25 h
[7] = target: T1, 3',5'-cyclic-AMP phosphodiesterase 4D; assay: Inhibition of PDE4D7 (unknown origin) using FAM-cyclic-3'5'-AMP as substrate at 1 uM incubated for 1 hrs by fluorescence polarization assay relative to control
[8] = target: cGMP-inhibited 3',5'-cyclic phosphodiesterase 3B (Homo sapiens) (UniProt Q13370); assay: Inhibition of PDE3B (unknown origin) using FAM-cyclic-3'5'-AMP as substrate at 10 uM incubated for 1 hrs by fluorescence polarization assay relative to control
cGMP-inhibited 3',5'-cyclic phosphodiesterase 3B (Homo sapiens), sequence (Q13370 whole entry, looked up): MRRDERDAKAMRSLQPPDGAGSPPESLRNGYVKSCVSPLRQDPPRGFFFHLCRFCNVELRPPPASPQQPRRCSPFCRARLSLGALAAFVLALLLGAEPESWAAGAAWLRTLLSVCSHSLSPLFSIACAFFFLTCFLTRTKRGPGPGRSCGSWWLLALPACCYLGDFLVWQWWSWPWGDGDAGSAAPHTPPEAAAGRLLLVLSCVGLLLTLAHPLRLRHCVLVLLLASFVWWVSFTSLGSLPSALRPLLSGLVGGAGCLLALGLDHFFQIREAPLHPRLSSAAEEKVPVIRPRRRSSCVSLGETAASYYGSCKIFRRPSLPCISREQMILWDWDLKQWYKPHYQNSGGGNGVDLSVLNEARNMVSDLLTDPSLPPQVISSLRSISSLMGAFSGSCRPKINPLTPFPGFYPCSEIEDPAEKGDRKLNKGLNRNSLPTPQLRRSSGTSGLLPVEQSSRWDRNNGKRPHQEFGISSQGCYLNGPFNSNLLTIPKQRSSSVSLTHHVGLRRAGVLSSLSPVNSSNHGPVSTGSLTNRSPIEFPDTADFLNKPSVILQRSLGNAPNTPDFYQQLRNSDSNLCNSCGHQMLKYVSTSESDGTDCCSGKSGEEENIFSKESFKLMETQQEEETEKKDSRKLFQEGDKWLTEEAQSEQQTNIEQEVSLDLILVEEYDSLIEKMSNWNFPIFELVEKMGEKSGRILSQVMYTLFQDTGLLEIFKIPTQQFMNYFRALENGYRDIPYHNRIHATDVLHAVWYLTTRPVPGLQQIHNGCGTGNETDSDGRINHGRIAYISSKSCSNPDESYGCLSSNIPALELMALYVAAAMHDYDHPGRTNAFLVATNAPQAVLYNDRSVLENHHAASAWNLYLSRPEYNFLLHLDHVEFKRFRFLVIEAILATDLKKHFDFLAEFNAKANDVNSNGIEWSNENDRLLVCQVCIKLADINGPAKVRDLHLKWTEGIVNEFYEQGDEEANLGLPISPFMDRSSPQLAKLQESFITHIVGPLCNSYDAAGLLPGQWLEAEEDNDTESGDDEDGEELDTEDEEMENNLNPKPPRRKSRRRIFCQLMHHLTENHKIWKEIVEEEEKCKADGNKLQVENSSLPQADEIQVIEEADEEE

[9] = target: High affinity 3',5'-cyclic-AMP phosphodiesterase 7A (Homo sapiens) (UniProt Q13946); assay: Inhibition of PDE7A (unknown origin) using FAM-cyclic-3'5'-AMP as substrate at 10 uM incubated for 1 hrs by fluorescence polarization assay relative to control
High affinity 3',5'-cyclic-AMP phosphodiesterase 7A (Homo sapiens), sequence (Q13946 whole entry): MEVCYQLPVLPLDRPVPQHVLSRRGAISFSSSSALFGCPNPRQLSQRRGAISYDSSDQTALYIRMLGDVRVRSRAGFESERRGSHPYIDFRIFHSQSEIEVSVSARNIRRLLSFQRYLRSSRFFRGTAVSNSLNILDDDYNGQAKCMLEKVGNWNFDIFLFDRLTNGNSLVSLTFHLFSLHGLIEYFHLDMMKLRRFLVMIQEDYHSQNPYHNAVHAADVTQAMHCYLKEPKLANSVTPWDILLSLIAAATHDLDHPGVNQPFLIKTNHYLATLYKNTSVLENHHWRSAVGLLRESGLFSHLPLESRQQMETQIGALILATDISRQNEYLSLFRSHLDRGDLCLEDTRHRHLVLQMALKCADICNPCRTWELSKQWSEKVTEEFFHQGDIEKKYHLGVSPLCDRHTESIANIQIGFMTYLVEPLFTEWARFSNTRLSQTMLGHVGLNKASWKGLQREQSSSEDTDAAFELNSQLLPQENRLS

[10] = target: High affinity cAMP-specific and IBMX-insensitive 3',5'-cyclic phosphodiesterase 8A (Homo sapiens) (UniProt O60658); assay: Inhibition of PDE8A (unknown origin) using FAM-cyclic-3'5'-AMP as substrate at 10 uM incubated for 1 hrs by fluorescence polarization assay relative to control
High affinity cAMP-specific and IBMX-insensitive 3',5'-cyclic phosphodiesterase 8A (Homo sapiens), sequence (O60658 whole entry): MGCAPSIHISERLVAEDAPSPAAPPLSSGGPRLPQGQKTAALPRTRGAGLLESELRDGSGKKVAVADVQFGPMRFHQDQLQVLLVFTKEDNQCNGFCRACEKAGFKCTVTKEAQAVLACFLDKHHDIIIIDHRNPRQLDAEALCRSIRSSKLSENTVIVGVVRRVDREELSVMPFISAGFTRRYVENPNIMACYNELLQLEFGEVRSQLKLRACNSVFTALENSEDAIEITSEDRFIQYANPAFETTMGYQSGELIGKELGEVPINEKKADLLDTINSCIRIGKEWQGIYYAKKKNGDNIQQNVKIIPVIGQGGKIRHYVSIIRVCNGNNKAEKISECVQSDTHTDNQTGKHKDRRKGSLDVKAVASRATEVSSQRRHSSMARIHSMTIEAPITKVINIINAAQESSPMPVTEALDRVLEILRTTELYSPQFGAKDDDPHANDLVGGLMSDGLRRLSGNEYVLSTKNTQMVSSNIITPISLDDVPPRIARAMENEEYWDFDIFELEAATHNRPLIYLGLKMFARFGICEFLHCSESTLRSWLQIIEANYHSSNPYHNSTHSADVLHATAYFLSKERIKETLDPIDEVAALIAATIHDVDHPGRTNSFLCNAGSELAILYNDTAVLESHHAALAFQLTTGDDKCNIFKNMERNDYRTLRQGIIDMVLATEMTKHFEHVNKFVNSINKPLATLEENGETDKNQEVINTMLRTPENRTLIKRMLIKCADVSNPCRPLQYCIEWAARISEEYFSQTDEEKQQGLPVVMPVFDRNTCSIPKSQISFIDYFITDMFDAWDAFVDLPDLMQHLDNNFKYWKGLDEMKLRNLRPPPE

[11] = target: High affinity cGMP-specific 3',5'-cyclic phosphodiesterase 9A (Homo sapiens) (UniProt O76083); assay: Inhibition of PDE9A (unknown origin) using FAM-cyclic-3'5'-AMP as substrate at 10 uM incubated for 1 hrs by fluorescence polarization assay relative to control
High affinity cGMP-specific 3',5'-cyclic phosphodiesterase 9A (Homo sapiens), sequence (O76083 whole entry): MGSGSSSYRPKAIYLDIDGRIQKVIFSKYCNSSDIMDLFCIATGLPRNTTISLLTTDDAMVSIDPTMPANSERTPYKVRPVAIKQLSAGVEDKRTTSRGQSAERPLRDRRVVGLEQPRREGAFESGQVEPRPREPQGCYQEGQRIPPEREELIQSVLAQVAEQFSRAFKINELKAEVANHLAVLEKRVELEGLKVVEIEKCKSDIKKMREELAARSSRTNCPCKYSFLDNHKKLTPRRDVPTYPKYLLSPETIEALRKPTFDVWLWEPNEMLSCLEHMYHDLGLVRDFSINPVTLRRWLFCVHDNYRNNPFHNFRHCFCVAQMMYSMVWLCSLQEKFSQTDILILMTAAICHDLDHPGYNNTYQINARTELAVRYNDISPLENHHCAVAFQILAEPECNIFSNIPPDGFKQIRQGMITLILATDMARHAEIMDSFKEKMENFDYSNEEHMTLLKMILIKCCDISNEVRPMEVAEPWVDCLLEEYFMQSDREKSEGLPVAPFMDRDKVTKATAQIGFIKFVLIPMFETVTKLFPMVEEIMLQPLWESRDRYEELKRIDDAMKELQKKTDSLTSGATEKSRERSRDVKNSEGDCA

[12] = Selectivity ratio of IC50 for PDE3B (unknown origin) to IC50 for PDE4D7 (unknown origin)
[13] = Selectivity ratio of IC50 for PDE7A (unknown origin) to IC50 for PDE4D7 (unknown origin)
[14] = Selectivity ratio of IC50 for PDE8A (unknown origin) to IC50 for PDE4D7 (unknown origin)
[15] = Selectivity ratio of IC50 for PDE9A (unknown origin) to IC50 for PDE4D7 (unknown origin)
[16] = Acute toxicity in male C57BL/6J mouse assessed as animal death at 0.1 g/Kg, po measured within 10 to 24 hrs; assay type: organism-based; details: in vivo, 100 mg/kg, time 10-24 hrs
RAW264.7 [17] = assay: Antiinflammatory activity against mouse RAW264.7 cells assessed as inhibition of LPS-induced IL-6 mRNA production at 10 uM incubated for 24 hrs by SYBR green quantitative PCR analysis; assay type: functional, cell-based
RAW264.7 [18] = assay: Antiinflammatory activity against mouse RAW264.7 cells assessed as inhibition of LPS-induced TNF-alpha mRNA production at 10 uM incubated for 24 hrs by SYBR green quantitative PCR analysis; assay type: functional, cell-based
RAW264.7 [19] = assay: Antiinflammatory activity against mouse RAW264.7 cells assessed as inhibition of LPS-induced iNOS mRNA production at 10 uM incubated for 24 hrs by SYBR green quantitative PCR analysis; assay type: functional, cell-based
Mus musculus [20] = assay: Antiinflammatory activity against DSS-induced colitis C57BL/6J mouse model assessed as decrease in body weight loss at 3 mg/kg, po pretreated with DSS for 10 days followed by twice daily compound administration for 8 days starting from day 3 to day 10 and measured on day 6; assay type: functional, organism-based; details: time 4.0 day
Mus musculus [21] = assay: Antiinflammatory activity against DSS-induced colitis C57BL/6J mouse model assessed as decrease in body weight loss at 3 mg/kg, po pretreated with DSS for 10 days followed by twice daily compound administration for 8 days starting from day 3 to day 10 relative to control; assay type: functional; parameters: scale not given: the % may be the effect or the level left; details: time 8 day
Mus musculus [22] = assay: Antiinflammatory activity against DSS-induced colitis C57BL/6J mouse model assessed as decrease in disease activity index at 3 mg/kg, po pretreated with DSS for 10 days followed by twice daily compound administration for 8 days starting from day 3 to day 10 relative to control; assay type: functional, organism-based; details: time 8.0 day
Mus musculus [23] = assay: Antiinflammatory activity against DSS-induced colitis C57BL/6J mouse model assessed as increase in colon length at 3 mg/kg, po pretreated with DSS for 10 days followed by twice daily compound administration for 8 days starting from day 3 to day 10; assay type: functional, organism-based; details: time 8.0 day
[24] = Acute toxicity in po dosed male C57BL/6J mouse assessed as lethal dose measured after 14 days; assay type: organism-based; details: in vivo, time 14 day
[25] = Toxicity in ketamine/xylazine-induced anesthetic male C57BL/6J mouse model assessed as emetogenic potential by measuring reduction in anesthesia duration at 5 to 10 mg/kg, po preadministered with compound for 15 mins followed by ketamine/xylazine administration; assay type: organism-based; details: in vivo, 0.25 h, dose 5-10 mg/kg
[26] = Oral bioavailability in male C57BL/6J mouse; assay type: ADME, organism-based; details: in vivo

T1 sequence (Q08499 whole entry): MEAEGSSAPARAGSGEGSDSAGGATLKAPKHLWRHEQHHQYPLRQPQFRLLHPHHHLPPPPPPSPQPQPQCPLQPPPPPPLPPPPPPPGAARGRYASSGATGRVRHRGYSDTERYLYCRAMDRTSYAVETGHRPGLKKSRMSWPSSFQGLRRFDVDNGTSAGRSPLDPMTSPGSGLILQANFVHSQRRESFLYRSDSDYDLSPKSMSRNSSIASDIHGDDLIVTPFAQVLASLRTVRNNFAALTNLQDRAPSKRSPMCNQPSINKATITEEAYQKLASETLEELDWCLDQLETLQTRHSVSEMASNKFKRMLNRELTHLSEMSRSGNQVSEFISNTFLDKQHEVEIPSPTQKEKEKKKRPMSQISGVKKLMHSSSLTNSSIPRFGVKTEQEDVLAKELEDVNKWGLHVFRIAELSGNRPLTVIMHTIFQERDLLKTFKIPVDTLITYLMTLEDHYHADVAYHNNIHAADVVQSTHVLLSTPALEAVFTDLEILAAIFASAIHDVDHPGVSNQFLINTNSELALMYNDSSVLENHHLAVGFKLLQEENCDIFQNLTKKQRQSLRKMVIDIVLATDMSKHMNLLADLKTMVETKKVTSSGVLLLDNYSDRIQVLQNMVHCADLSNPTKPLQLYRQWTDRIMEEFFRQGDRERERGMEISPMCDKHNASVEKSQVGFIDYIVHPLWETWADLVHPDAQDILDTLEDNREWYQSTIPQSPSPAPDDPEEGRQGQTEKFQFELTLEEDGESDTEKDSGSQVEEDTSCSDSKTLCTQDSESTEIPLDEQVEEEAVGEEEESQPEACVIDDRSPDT

Structure (SMILES) | inhibition [1] [%] | pIC50 [2] | inhibition [3] [%] | other results
COc1cc(-c2ccc(OC)c3nn(C4CC4)cc23)cc(OC)c1OC | 73 | 7.56 | 34 | Ratio IC50 [4]: > 20
OCCN(CCO)c1nc(N2CCCCC2)c2nc(N(CCO)CCO)nc(N3CCCCC3)c2n1 [DIPYRIDAMOLE] |  |  |  | IC50 (Phosphodiesterase 4): 2800 nM; IC50 (Phosphodiesterase 7): 600 nM
CC(=O)c1cccc(-c2ccc(OC(F)F)c3nn(C4CC4)cc23)c1 | 88 | 7.87 | 38 | Activity (HT-22): Toxic
Fc1cnccc1-c1ccc(OC(F)F)c2nn(C3CC3)cc12 | 15 |  | 3 | 
COc1cc(OC)cc(-c2ccc(OC(F)F)c3nn(C4CC4)cc23)c1 | 4 |  |  | 
FC(F)Oc1ccc(-c2ccncc2Cl)c2cn(C3CC3)nc12 | 14 |  | 6 | 
FC(F)Oc1ccc(N2CCOCC2)c2cn(C3CC3)nc12 | 12 |  | 4 | 
COc1ccc(-c2cccc(CN)c2)c2cn(C3CC3)nc12 | 71 | 7.48 | 32 | 
COc1ccc(-n2ccc3cc(C#N)ccc32)c2cn(C3CC3)nc12 | 16 |  | 18 | 
CNc1cc(-c2ccc(OC(F)F)c3nn(C4CC4)cc23)ccn1 | 18 |  | 4 | 
COc1ccc(-c2cc(C#N)cc(Cc3ccccc3)c2)c2cn(C3CC3)nc12 | 3 |  | 3 | 
COc1ccc(-c2cccc(C(C)=O)c2)n2nc(C3(C(=O)NC4CCCC4)CC3)nc12 |  |  |  | pIC50 [5]: > 6.30
COc1ccc(C2CNC(=O)C2)cc1OC1CCCC1 (stereo not given) [ROLIPRAM] |  |  |  | Activity [6]: Toxic
CC(C)(O)C1CN(c2ccc(OC(F)F)c3nn(C4CC4)cc23)C1 | 4 |  | 4 | 
COc1ccc(-c2cccc(C(C)=O)c2)c2cn(C3(C(=O)NCC(C)C)CC3)nc12 | 4 | < 6.00 |  | inhibition [7]: 7%
NC(=O)c1cccnc1Oc1cc(-c2ccc(OC(F)F)c3nn(C4CC4)cc23)cc2c1OCO2 | 22 |  |  | 
FC(F)Oc1ccc(-c2ccncc2)c2cn(C3CC3)nc12 | 77 | 7.70 | 34 | inhibition [8]: 8%; inhibition [9]: 13%; inhibition [10]: 5%; inhibition [11]: 4%; Activity (HT-22): Non-Toxic; Ratio IC50 [12]: > 502; Ratio IC50 [13]: > 502; Ratio IC50 [14]: > 502; Ratio IC50 [15]: > 502; Activity [16]: Toxic
COc1ccc(N2CC(Oc3ccccc3)C2)c2cn(C3CC3)nc12 | 9 |  | 7 | 

Structure (SMILES) | inhibition [1] [%] | pIC50 [2] | inhibition [3] [%] | other results
FC(F)Oc1ccc(-c2ccnc(N3CCOCC3)c2)c2cn(C3CC3)nc12 | 11 |  | 3 | 
COc1ccc(-c2ccc(OC)c3nn(C4CC4)cc23)cc1OC | 4 |  | 3 | inhibition [2]: inactive
N#Cc1cccnc1Oc1cc(-c2ccc(OC(F)F)c3nn(C4CC4)cc23)cc2c1OCO2 | 2 |  |  | 
COc1cc(-c2ccc(OC(F)F)c3nn(C4CC4)cc23)ccn1 | 21 |  | 7 | 
COc1cc(-c2ccc(OC(F)F)c3nn(C4CC4)cc23)cc2c1OCO2 | 24 |  |  | 
FC(F)Oc1ccc(-c2ccnc(Cl)c2)c2cn(C3CC3)nc12 | 79 | 7.65 | 28 | 
O=C(Nc1c(Cl)cncc1Cl)c1ccc(OC(F)F)c(OCC2CC2)c1 [ROFLUMILAST] |  |  |  | Activity [6]: Toxic; Activity (RAW264.7 [17]): Active; Activity (RAW264.7 [18]): Active; Activity (RAW264.7 [19]): Active; Activity (Mus musculus [20]): Active; Activity (Mus musculus [21]): 7.3%; Activity (Mus musculus [22]): Active; Activity (Mus musculus [23]): Active
CCOc1cc([C@@H](CS(C)(=O)=O)N2C(=O)c3cccc(NC(C)=O)c3C2=O)ccc1OC |  |  |  | Activity [6]: Toxic
COc1ccc(-c2cccc(C(C)=O)c2)c2cn(C3(C(=O)NC4CCCC4)CC3)nc12 | 8 | < 6.00 |  | inhibition [7]: 4%
COc1ccc(-c2cccc(C#N)c2)c2cn(C3(C(=O)NCC(C)C)CC3)nc12 | 18 | 6.42 |  | inhibition [7]: 81%
COc1ccc(-c2cccc(C(N)=O)c2)c2cn(C3CC3)nc12 | 68 | 7.42 | 26 | 
COc1ccc(-c2ccncc2)c2cn(C3CC3)nc12 | 89 | 8.00 | 46 | inhibition [8]: 11%; inhibition [9]: 13%; inhibition [10]: 10%; inhibition [11]: 7%; Activity (HT-22): Non-Toxic; Ratio IC50 [12]: > 990; Ratio IC50 [13]: > 990; Ratio IC50 [14]: > 990; Ratio IC50 [15]: > 990; LD50 at 336 h [24]: 400 mg/kg; Activity [25]: Non-Toxic; bioavailability [26]: 3.4%
CC(C)CNC(=O)c1cc(-c2ccc(OC(F)F)c3nn(C4CC4)cc23)ccn1 | 14 |  | 5 | 
COc1ccc(-c2cccc(C(C)=O)c2)c2cn(C3CC3)nc12 | 68 | 7.64 | 37 | 
O=C(NCc1ccccc1)c1cc(-c2ccc(OC(F)F)c3nn(C4CC4)cc23)ccn1 | 16 |  | 8 | 
Fc1cc(-c2ccc(OC(F)F)c3nn(C4CC4)cc23)ccn1 | 38 |  | 12 | 
COc1ccc(-c2cccc(C#N)c2)c2cn(C3CC3)nc12 | 6 |  | 5 | 

Reference: ChEMBL document CHEMBL5614392, “Discovery of novel N2-indazole derivatives as phosphodiesterase 4 inhibitors for the treatment of inflammatory bowel disease” (Eur J Med Chem, 2024)
